{"source": "paper PMC3775972", "about": "(Wound repair and regeneration : official publication of the …, 2013)", "key": {"hybridoma mouse cells": {"test_system": "hybridoma mouse cells", "conditions": "nM concentrations; cited from earlier work"}, "[1]": {"test_system": "T-lymphoblastic leukaemia CEM cells", "conditions": "read-out: IC50, cytotoxicity; cited from earlier work"}, "TNF-α mRNA": {"test_system": "TNF-α mRNA", "experiment": "Real time PCR of wound tissue, TNF-α", "assay_type": "in vivo", "conditions": "d 10 post-wounding, 10 μg/mouse topical daily"}, "TGF-β mRNA": {"test_system": "TGF-β mRNA", "experiment": "Real time PCR of wound tissue, TGF-β", "assay_type": "in vivo", "conditions": "d 10 post-wounding, 10 μg/mouse topical daily"}, "ICAM-1 mRNA": {"test_system": "ICAM-1 mRNA", "experiment": "Real time PCR of wound tissue, ICAM-1", "assay_type": "in vivo", "conditions": "d 10 post-wounding, 10 μg/mouse topical daily"}, "3T3 mouse fibroblasts [2]": {"test_system": "3T3 mouse fibroblasts", "experiment": "Scratch wound closure", "assay_type": "cell-based", "conditions": "for Scratch wound closure at 5 μM, %: 12 h incubation, mean ± SEM; for Fibroblast migration / scratch wound closure activity (in words): dose dependence at 0.1–10 μM, 12 h"}, "3T3 mouse fibroblasts [3]": {"test_system": "3T3 mouse fibroblasts", "experiment": "Fibroblast proliferation assay", "assay_type": "cell-based", "conditions": "24 h, BrdU, mean ± SEM"}, "3T3 mouse fibroblasts [4]": {"test_system": "3T3 mouse fibroblasts", "experiment": "Fibroblast viability / cytotoxicity assay", "assay_type": "cell-based", "conditions": "for IC50: read-out: Cell cytotoxicity, IC, MTT, 0.3–30 μM for 4 h"}, "[5]": {"test_system": "primary mouse keratinocytes", "experiment": "Primary keratinocyte proliferation assay", "assay_type": "cell-based", "conditions": "for Proliferation of primary keratinocytes: versus vehicle (ethanol); for Proliferation of primary keratinocytes, dose dependence: respective doses, Alamar Blue"}, "[6]": {"test_system": "full thickness dermal wound in C57BL/6J mice", "experiment": "Mouse model of cutaneous wound healing", "assay_type": "in vivo"}, "[7]": {"experiment": "Body weight and food intake after wounding", "assay_type": "in vivo", "conditions": "10 μg/mouse topically daily, d 2 post-wounding"}, "phospho-Akt1(Ser473)": {"test_system": "phospho-Akt1(Ser473)", "experiment": "Western blot of edge-of-the-wound tissue, Akt phosphorylation", "assay_type": "in vivo", "conditions": "10 μg/mouse topical daily"}, "macrophage cell culture": {"test_system": "macrophage cell culture", "experiment": "LPS-stimulated inflammation in macrophage cell culture", "assay_type": "cell-based", "conditions": "preliminary data, not shown"}, "RPMI 8226 cancer cells": {"test_system": "RPMI 8226 cancer cells", "conditions": "read-out: IC50, cytotoxicity; RPMI 8226 cells; cited from earlier work"}, "K562 cancer cell line": {"test_system": "K562 cancer cell line", "conditions": "cited from earlier work"}, "A549 cancer cell line": {"test_system": "A549 cancer cell line", "conditions": "cited from earlier work"}, "HeLa cancer cell line": {"test_system": "HeLa cancer cell line", "conditions": "cited from earlier work"}, "HOS cancer cell line": {"test_system": "HOS cancer cell line", "conditions": "cited from earlier work"}, "healthy rats": {"test_system": "healthy rats", "conditions": "oral administration, associated with activation of Akt; cited from earlier work"}, "[8]": {"experiment": "Fibroblast viability / cytotoxicity assay", "assay_type": "cell-based, mouse", "conditions": "mouse, NIH 3T3 fibroblasts (ATCC CCL-92)"}, "human cancer cell lines": {"test_system": "human cancer cell lines", "conditions": "below 50 μM; cited from earlier work"}, "3T3 mouse fibroblasts [9]": {"test_system": "3T3 mouse fibroblasts", "conditions": "PDGF 2 nM, reference treatment; cited from earlier work"}}, "data": [{"molecule": "CC(C)[C@@H](C)[C@@H](O)[C@H](O)[C@@H](C)[C@H]1CC[C@H]2[C@@H]3COC(=O)[C@H]4C[C@H](O)[C@H](O)C[C@]4(C)[C@H]3CC[C@]12C", "note": "[24-epibrassinolide]", "values": [{"measurement": "Proportions of viable hybridoma mouse cells", "setting": "hybridoma mouse cells", "result": "increased"}]}, {"molecule": "CC[C@@H](C(C)C)[C@@H](O)[C@H](O)[C@@H](C)[C@H]1CC[C@H]2[C@@H]3CC(=O)[C@H]4C[C@H](O)[C@H](O)C[C@]4(C)[C@H]3CC[C@]12C", "note": "[(22R, 23R)-homocastasterone, reference compound]", "values": [{"measurement": "IC50", "setting": "[1]", "result": 13, "unit": "µM"}]}, {"molecule": "CCNC(=O)[C@H]1O[C@@H](n2cnc3c(N)nc(NCCc4ccc(CCC(=O)O)cc4)nc32)[C@H](O)[C@@H]1O", "note": "[CGS-21680, reference compound]", "values": [{"measurement": "TNF-α mRNA level in wound tissue", "setting": "TNF-α mRNA", "result": "remarkable suppression"}, {"measurement": "TGF-β mRNA level in wound tissue", "setting": "TGF-β mRNA", "result": "no effect"}, {"measurement": "ICAM-1 mRNA level in wound tissue", "setting": "ICAM-1 mRNA", "result": "no effect"}]}, {"molecule": "CC[C@@H](C(C)C)[C@H](O)[C@@H](O)[C@@H](C)[C@H]1CC[C@H]2[C@@H]3COC(=O)[C@H]4C[C@H](O)[C@H](O)C[C@]4(C)[C@H]3CC[C@]12C", "note": "[Compound 1, (22S, 23S, 24S)-2α, 3 α, 22,23-tetrahydroxy-24 ethyl-^2-homo-7-oxo-5α-cholestane-6-one]", "values": [{"measurement": "Scratch wound closure at 5 μM, %", "setting": "3T3 mouse fibroblasts [2]", "result": "30 ± 4.2", "unit": "%"}, {"measurement": "Scratch wound closure at 5 μM, %", "setting": "3T3 mouse fibroblasts [2]; listed as HB", "result": "30 ± 4.2", "unit": "%"}, {"measurement": "Cell proliferation at 5 μM, % of control", "setting": "3T3 mouse fibroblasts [3]", "result": "37.7 ± 3.4 % of control"}, {"measurement": "Cytotoxicity (in words)", "setting": "3T3 mouse fibroblasts [4]; at or up to 30 μM, the highest concentration tested", "result": "no cytotoxicity"}, {"measurement": "IC50", "setting": "3T3 mouse fibroblasts [4]", "result": "> 30", "unit": "µM"}, {"measurement": "Proliferation of primary keratinocytes", "setting": "[5]; 3 μM", "result": "did not reach significance"}, {"measurement": "Proliferation of primary keratinocytes", "setting": "[5]; doses of 0.3 and 10 μM", "result": "significant increase"}, {"measurement": "Cutaneous wound healing", "setting": "[6]; 10 μg topical per mouse per day for 10 d, versus vehicle", "result": "significantly improved"}, {"measurement": "Increase in speed of wound closure relative to control mice", "setting": "[6]; d 4, percent of original wound size, 10 μg/mouse topical", "result": 2, "unit": "fold"}, {"measurement": "Body weight loss associated with injury", "setting": "[7]", "result": "tendency for HB to reduce weight loss"}, {"measurement": "TNF-α mRNA level in wound tissue", "setting": "TNF-α mRNA", "result": "nearly complete downregulation"}, {"measurement": "TGF-β mRNA level in wound tissue", "setting": "TGF-β mRNA", "result": "weak effect"}, {"measurement": "ICAM-1 mRNA level in wound tissue", "setting": "ICAM-1 mRNA", "result": "significant suppression"}, {"measurement": "Akt-1 phosphorylation in edge-of-the-wound tissue", "setting": "phospho-Akt1(Ser473)", "result": "upregulation"}, {"measurement": "Effect on LPS-stimulated inflammation", "setting": "macrophage cell culture", "result": "no pro- or anti-inflammatory effect"}, {"measurement": "IC50", "setting": "[1]", "result": "~30", "unit": "µM"}, {"measurement": "IC50", "setting": "RPMI 8226 cancer cells", "result": "~30", "unit": "µM"}, {"measurement": "Cytotoxicity (in words)", "setting": "K562 cancer cell line", "result": "no cytotoxicity"}, {"measurement": "Cytotoxicity (in words)", "setting": "A549 cancer cell line", "result": "no cytotoxicity"}, {"measurement": "Cytotoxicity (in words)", "setting": "HeLa cancer cell line", "result": "no cytotoxicity"}, {"measurement": "Cytotoxicity (in words)", "setting": "HOS cancer cell line", "result": "no cytotoxicity"}, {"measurement": "Anabolic response", "setting": "healthy rats", "result": "selective anabolic response"}]}, {"molecule": "CC[C@@H](C(C)C)[C@H](O)[C@@H](O)[C@@H](C)[C@H]1CC[C@H]2[C@@H]3CC(=O)[C@H]4C[C@H](O)[C@H](O)C[C@]4(C)[C@H]3CC[C@]12C", "note": "[Compound 2, (22S, 23S, 24S)-2α, 3α, 22, 23-tetrahydroxy-24-ethyl-5α-cholestan-6-one]", "values": [{"measurement": "Scratch wound closure at 5 μM, %", "setting": "3T3 mouse fibroblasts [2]", "result": "32.9 ± 4.1", "unit": "%"}, {"measurement": "IC50 at 4 h", "setting": "[8]", "result": "> 30", "unit": "µM"}, {"measurement": "Cytotoxicity (in words)", "setting": "human cancer cell lines", "result": "weak to no cytotoxicity"}]}, {"molecule": "CC[C@H](C(C)C)[C@H](O)[C@@H](O)[C@@H](C)[C@H]1CC[C@H]2[C@@H]3COC(=O)[C@H]4C[C@H](F)CC[C@]4(C)[C@H]3CC[C@]12C", "note": "[Compound 3, (22S,23S,24R)-3α-fluoro-22,23-dihydroxy-24-ethyl-^2-homo-7-oxa-5 α-cholestan-6-one]", "values": [{"measurement": "Scratch wound closure at 5 μM, %", "setting": "3T3 mouse fibroblasts [2]", "result": "15.3 ± 2.6", "unit": "%"}, {"measurement": "IC50", "setting": "3T3 mouse fibroblasts [4]", "result": "~30", "unit": "µM"}]}, {"molecule": "CC[C@@H](C(C)C)[C@H](O)[C@@H](O)[C@@H](C)[C@H]1CC[C@H]2[C@@H]3CC(=O)[C@H]4C[C@H](F)CC[C@]4(C)[C@H]3CC[C@]12C", "note": "[Compound 4, (22S,23S,24S)-3α-fluoro-22,23-dihydroxy-24-ethyl-5 α-cholestan-6-one]", "values": [{"measurement": "Scratch wound closure at 5 μM, %", "setting": "3T3 mouse fibroblasts [2]", "result": "27.7 ± 4.0", "unit": "%"}, {"measurement": "Fibroblast migration / scratch wound closure activity (in words)", "setting": "3T3 mouse fibroblasts [2]", "result": "high activity similar to HB"}, {"measurement": "IC50 at 4 h", "setting": "[8]", "result": "~30", "unit": "µM"}, {"measurement": "Proliferation of primary keratinocytes, dose dependence", "setting": "[5]", "result": "dose-dependently decreased"}]}, {"molecule": "CC[C@@H](C(C)C)[C@H](O)[C@@H](O)[C@@H](C)[C@H]1CC[C@H]2[C@@H]3CNC(=O)[C@H]4C[C@H](O)[C@H](O)C[C@]4(C)[C@H]3CC[C@]12C", "note": "[Compound 5, (22S,23S,24S)-2α,3α,22,23-tetrahydroxy-24-ethyl-^2-homo-7-aza-5α-cholestan-6-one]", "values": [{"measurement": "Scratch wound closure at 5 μM, %", "setting": "3T3 mouse fibroblasts [2]", "result": "13.0 ± 0.7", "unit": "%"}, {"measurement": "Fibroblast migration / scratch wound closure activity (in words)", "setting": "3T3 mouse fibroblasts [2]", "result": "no effect"}, {"measurement": "IC50", "setting": "3T3 mouse fibroblasts [4]", "result": 12.5, "unit": "µM"}]}, {"molecule": "CC[C@@H](C(C)C)[C@H](O)[C@@H](O)[C@@H](C)[C@H]1CC[C@H]2[C@@H]3CC(=O)N[C@H]4C[C@H](O)[C@H](O)C[C@]4(C)[C@H]3CC[C@]12C", "note": "[Compound 6, (22S,23S,24S)-2α,3α,22,23-tetrahydroxy-24-ethyl-^2-homo-6-aza-5α-cholestan-7-one]", "values": [{"measurement": "Scratch wound closure at 5 μM, %", "setting": "3T3 mouse fibroblasts [2]", "result": "30.5 ± 4.2", "unit": "%"}, {"measurement": "Fibroblast migration / scratch wound closure activity (in words)", "setting": "3T3 mouse fibroblasts [2]", "result": "highest activity at 3 μM"}, {"measurement": "IC50", "setting": "3T3 mouse fibroblasts [4]", "result": "> 30", "unit": "µM"}, {"measurement": "Proliferation of primary keratinocytes, dose dependence", "setting": "[5]", "result": "dose-dependently decreased"}]}, {"molecule": "CC(C)[C@H](C)[C@H](O)[C@@H](O)[C@@H](C)[C@H]1CC[C@H]2[C@@H]3COC(=O)[C@H]4C[C@@H](O)[C@H](O)C[C@]4(C)[C@H]3CC[C@]12C", "note": "[Compound 8, (22S,23S,24R)-2α,3α,22,23-tetrahydroxy-24-methyl-^2-homo-7-oxa-5α-cholestan-6-one]", "values": [{"measurement": "Scratch wound closure at 5 μM, %", "setting": "3T3 mouse fibroblasts [2]", "result": "13.2 ± 1.5", "unit": "%"}, {"measurement": "Cell proliferation at 5 μM, % of control", "setting": "3T3 mouse fibroblasts [3]", "result": "31.9 ± 5.3 % of control"}, {"measurement": "IC50", "setting": "3T3 mouse fibroblasts [4]", "result": "> 30", "unit": "µM"}]}, {"molecule": "CC(C)[C@@H](C)[C@@H](O)[C@H](O)[C@@H](C)[C@H]1CC[C@H]2[C@@H]3COC(=O)[C@H]4C[C@H](O)[C@H](O)C[C@]4(C)[C@H]3CC[C@]12C", "note": "[Compound 9, (22R,23R,24R)-2α,3α,22,23-tetrahydroxy-24-methyl-^2-homo-7-oxa-5α-cholestan-6-one]", "values": [{"measurement": "Scratch wound closure at 5 μM, %", "setting": "3T3 mouse fibroblasts [2]", "result": "8.1 ± 1.6", "unit": "%"}, {"measurement": "Cell proliferation at 5 μM, % of control", "setting": "3T3 mouse fibroblasts [3]", "result": "31.0 ± 2.6 % of control"}, {"measurement": "IC50", "setting": "3T3 mouse fibroblasts [4]", "result": "> 30", "unit": "µM"}]}, {"molecule": "PDGF", "values": [{"measurement": "Scratch wound closure, %", "setting": "3T3 mouse fibroblasts [9]", "result": "64.8 ± 1.7", "unit": "%"}]}]}
